Results taken from publication PMC6270595, “Synthesis and Cytotoxicity of Novel 10-Substituted Dihydroartemisinin Derivatives Containing N-Arylphenyl-ethenesulfonamide Groups” (Molecules, 2013).

Columns and labels:
[1] = system: MDA-MB-231 (human breast cancer); test: MTT cytotoxicity assay, MDA-MB-231; assay type: cell-based; conditions: Homo sapiens, MDA-MB-231 cells, 50% cell growth inhibition after 72 h of drug exposure
Description: (§1) The cytotoxic activities of target compounds were evaluated against HT-29 (human colon cancer), MDA-MB-231 (human breast cancer), U87MG (human glioblastoma), H460 (human lung cancer), A549 (non-small-cell lung adenocarcinoma), HL-60 (human leukemic) cancer cell lines and one normal cell line WI-38 (human fetal lung fibroblasts) together with references DHA and cisplatin by a MTT assay.
(§2) The cytotoxic activities of compounds 3a–h and 6a–j were evaluated with the HT-29, MDA-MB-231, U87MG, H460, A549, HL-60 cancer cell lines and one normal cell line, WI-38, by the standard MTT assay in vitro [20], with DHA as the positive control. The cell lines were cultured in minimum essential medium (MEM) supplement with 10% fetal bovine serum (FBS). Approximately 4 × 10^3 cells, suspended in MEM medium, were plated on to each well of a 96-well plate and incubated in 5% CO2 at 37 °C for 24 h. The test compounds at indicated final concentrations were added to the culture medium and the cell cultures were continued for 72 h. Fresh MTT was added to each well at a terminal concentration of 5 μg/mL and incubated with cells at 37 °C for 4 h. The formazan crystals were dissolved in 100 μL DMSO each well, and the absorbency at 492 nm (for absorbance of MTT formazan) and 630 nm (for the reference wavelength) was measured with the ELISA reader. All of the compounds were tested twice in each of the cell lines. The results expressed as IC50 (inhibitory concentration 50%) were the averages of two determinations and calculated using the Bacus Laboratories Incorporated Slide Scanner (Bliss) software.

[2] = system: U87MG (human glioblastoma); test: MTT cytotoxicity assay, U87MG; assay type: cell-based; conditions: Homo sapiens, U-87 MG; U87MG cells, 50% cell growth inhibition after 72 h of drug exposure, MTT
Description: as §1, §2

[3] = system: HT-29 (human colon cancer); test: MTT cytotoxicity assay, HT-29; assay type: cell-based; conditions: Homo sapiens, HT-29 cells, 50% cell growth inhibition after 72 h of drug exposure, read-out: IC50(μM) HT29
Description: as §1, §2

[4] = system: HL-60 (human leukemic); test: MTT cytotoxicity assay, HL-60; assay type: cell-based; conditions: Homo sapiens; HL-60 cells, 50% cell growth inhibition after 72 h of drug exposure, MTT
Description: as §1, §2

[5] = system: H460 (human lung cancer); test: MTT cytotoxicity assay, H460; assay type: cell-based; conditions: Homo sapiens, NCI-H460; H460 cells, 50% cell growth inhibition after 72 h of drug exposure, MTT
Description: as §1, §2

[6] = system: WI-38 (human fetal lung fibroblasts); test: MTT cytotoxicity assay, normal cell line WI-38; assay type: cell-based; conditions: Homo sapiens, normal WI-38 cells, 50% cell growth inhibition after 72 h of drug exposure, read-out: IC50(μM) WI38
Description: as §1, §2

[7] = system: A549 (non-small-cell lung adenocarcinoma); test: MTT cytotoxicity assay, A549; assay type: cell-based, human; conditions: Homo sapiens, A549 cells, 50% cell growth inhibition after 72 h of drug exposure
Description: as §1, §2

Row | SMILES | melting point [°C] | IC50 [1] [µM] | IC50 [2] [µM] | IC50 [3] [µM] | IC50 [4] [µM] | IC50 [5] [µM] | IC50 [6] [µM] | IC50 [7] [µM]
1 | C[C@@H]1CC[C@H]2[C@@H](C)C(OCCOc3ccc(/C=C/S(=O)(=O)Nc4ccccc4Cl)cc3)O[C@@H]3O[C@@]4(C)CC[C@@H]1[C@]32OO4 (stereo partly drawn) [Compound 3g, (E)-2-(4-(2-(10β-Dihydroartemisinoxy)ethoxy)phenyl)-N-(2-chlorophenyl)ethenesulfonamide] | 141 to 143 | 0.93 | 1.78 | 0.55 | 0.17 | 2.53 | 16.3 | 3.05
2 | C[C@@H]1CC[C@H]2[C@@H](C)C(OCCOc3ccc(/C=C/S(=O)(=O)Nc4cccc(Cl)c4)cc3)O[C@@H]3O[C@@]4(C)CC[C@@H]1[C@]32OO4 (stereo partly drawn) [Compound 3b, (E)-2-(4-(2-(10β-Dihydroartemisinoxy)ethoxy)phenyl)-N-(3-chlorophenyl)ethenesulfonamide] | 137 to 138 | 1.61 | 3.51 | 0.78 | 0.75 | 7.32 | 23.9 | 4.48
3 | C[C@@H]1CC[C@H]2[C@@H](C)C(OCCOc3ccc(/C=C/S(=O)(=O)Nc4ccccc4)cc3)O[C@@H]3O[C@@]4(C)CC[C@@H]1[C@]32OO4 (stereo partly drawn) [Compound 3a, (E)-2-(4-(2-(10β-Dihydroartemisinoxy)ethoxy)phenyl)-N-phenylethenesulfonamide] | 136 to 138 | 2 | 3.97 | 0.68 | 1.25 | 5.38 | 16.8 | 2.16
4 | C[C@@H]1CC[C@H]2[C@@H](C)C(OCCOc3ccc(/C=C/S(=O)(=O)Nc4ccc(Cl)cc4)cc3)O[C@@H]3O[C@@]4(C)CC[C@@H]1[C@]32OO4 (stereo partly drawn) [Compound 3f, (E)-2-(4-(2-(10β-Dihydroartemisinoxy)ethoxy)phenyl)-N-(4-chlorophenyl)ethenesulfonamide] | 138 to 141 | 1.04 | 0.79 | 0.42 | 0.08 | 1.41 | 19.9 | 3.52
5 | C[C@@H]1CC[C@H]2[C@@H](C)C(OCCOc3ccc(/C=C/S(=O)(=O)Nc4c(Cl)cccc4Cl)cc3)O[C@@H]3O[C@@]4(C)CC[C@@H]1[C@]32OO4 (stereo partly drawn) [Compound 3h, (E)-2-(4-(2-(10β-Dihydroartemisinoxy)ethoxy)phenyl)-N-(2,6-dichlorophenyl)ethenesulfonamide] | 144 to 146 | 1.07 | 2.51 | 0.49 | 0.14 | 1.28 | 20.7 | 4.33
6 | Cc1ccc(F)c(NS(=O)(=O)/C=C/c2ccc(OCCOC3O[C@@H]4O[C@@]5(C)CC[C@H]6[C@H](C)CC[C@@H]([C@H]3C)[C@@]46OO5)cc2)c1 (stereo partly drawn) [Compound 3d, (E)-2-(4-(2-(10β-Dihydroartemisinoxy)ethoxy)phenyl)-N-(2-fluoro-5-methylphenyl)ethenesulfonamide] | 138 to 140 | 1.27 | 5.71 | 1.78 | 0.84 | 4.29 | 20.5 | 3.64

Further lines, with some results ahead:

Row | melting point [°C] | SMILES | IC50 [1] [µM] | IC50 [2] [µM] | IC50 [3] [µM] | IC50 [4] [µM] | IC50 [5] [µM] | IC50 [6] [µM] | IC50 [7] [µM]
7 | 135 to 137 | Cc1ccc(F)c(NS(=O)(=O)/C=C/c2ccc(OCc3ccc(C(=O)NCCOC4O[C@@H]5O[C@@]6(C)CC[C@H]7[C@H](C)CC[C@@H]([C@H]4C)[C@@]57OO6)cc3)cc2)c1 (stereo partly drawn) [Compound 6d, (E)-N-(2-(10β-Dihydroartemisinoxy)ethyl)-4((4-(2-(N-(2-fluoro-5-methylphenyl)sulfamoyl)vinyl)phenoxy)methyl)benzamide] | 1.33 | 17.2 | 1.82 | 1.3 | 10.9 | 19.3 | 9.72
8 | 143 to 145 | Cc1ccccc1NS(=O)(=O)/C=C/c1ccc(OCc2ccc(C(=O)NCCOC3O[C@@H]4O[C@@]5(C)CC[C@H]6[C@H](C)CC[C@@H]([C@H]3C)[C@@]46OO5)cc2)cc1 (stereo partly drawn) [Compound 6e, (E)-N-(2-(10β-Dihydroartemisinoxy)ethyl)-4((4-(2-(N-(2-methylphenyl)sulfamoyl)vinyl)phenoxy)methyl)benzamide] | 2.1 | 3.65 | 2.09 | 3.21 | 1.92 | 16.4 | 5.47
9 | 152 to 154 | C[C@@H]1CC[C@H]2[C@@H](C)C(OCCNC(=O)c3ccc(COc4ccc(/C=C/S(=O)(=O)Nc5ccc(F)c(C(F)(F)F)c5)cc4)cc3)O[C@@H]3O[C@@]4(C)CC[C@@H]1[C@]32OO4 (stereo partly drawn) [Compound 6j, (E)-N-(2-(10β-Dihydroartemisinoxy)ethyl)-4((4-(2-(N-(3-trifluoromethyl-4fluorophenyl)sulfamoyl)vinyl)phenoxy)methyl)benzamide] | 1.05 | 3.27 | 0.38 | 1.27 | 5.31 | 30.4 | 2.78
10 | 138 to 141 | C[C@@H]1CC[C@H]2[C@@H](C)C(OCCNC(=O)c3ccc(COc4ccc(/C=C/S(=O)(=O)Nc5ccc(Cl)cc5)cc4)cc3)O[C@@H]3O[C@@]4(C)CC[C@@H]1[C@]32OO4 (stereo partly drawn) [Compound 6f, (E)-N-(2-(10β-Dihydroartemisinoxy)ethyl)-4((4-(2-(N-(4-chlorophenyl)sulfamoyl)vinyl)phenoxy)methyl)benzamide] | 2.38 | 1.59 | 0.92 | 1.33 | 1.77 | 24.7 | 5.72
11 | 144 to 145 | COc1cccc(NS(=O)(=O)/C=C/c2ccc(OCc3ccc(C(=O)NCCOC4O[C@@H]5O[C@@]6(C)CC[C@H]7[C@H](C)CC[C@@H]([C@H]4C)[C@@]57OO6)cc3)cc2)c1 (stereo partly drawn) [Compound 6i, (E)-N-(2-(10β-Dihydroartemisinoxy)ethyl)-4((4-(2-(N-(3-methoxyphenyl)sulfamoyl)vinyl)phenoxy)methyl)benzamide] | 8.89 | > 100 | 8.95 | 8.53 | 16.3 | 19.2 | 11.3
12 | 147 to 150 | C[C@@H]1CC[C@H]2[C@@H](C)C(OCCNC(=O)c3ccc(COc4ccc(/C=C/S(=O)(=O)Nc5ccccc5Cl)cc4)cc3)O[C@@H]3O[C@@]4(C)CC[C@@H]1[C@]32OO4 (stereo partly drawn) [Compound 6g, (E)-N-(2-(10β-Dihydroartemisinoxy)ethyl)-4((4-(2-(N-(2-chlorophenyl)sulfamoyl)vinyl)phenoxy)methyl)benzamide] | 0.72 | 2.69 | 0.45 | 0.27 | 0.89 | 27.2 | 5.31
13 | 142 to 145 | C[C@@H]1CC[C@H]2[C@@H](C)C(OCCNC(=O)c3ccc(COc4ccc(/C=C/S(=O)(=O)Nc5ccccc5)cc4)cc3)O[C@@H]3O[C@@]4(C)CC[C@@H]1[C@]32OO4 (stereo partly drawn) [Compound 6a, (E)-N-(2-(10β-Dihydroartemisinoxy)ethyl)-4((4-(2-(N-phenylsulfamoyl)vinyl)phenoxy)methyl)benzamide] | 2.26 | 6.47 | 0.98 | 2.41 | 5.28 | 20 | 3.21
